{"source": "patent US11572590B2", "about": "“Methods for evaluating tumor cell spheroids using 3D microfluidic cell culture device” (Dana-Farber Cancer Institute, Inc., priority 2017, dated 2023)", "assay_in_all_cases": "SelectScreen Kinase Profiling, single point inhibition and IC50 for off-target kinases", "format_in_all_cases": "biochemical", "key": {"off-target kinases [1]": {"target": "off-target kinases (Homo sapiens, UniProt P10721, A829P)", "sequence (P10721 26-976 A829P)": "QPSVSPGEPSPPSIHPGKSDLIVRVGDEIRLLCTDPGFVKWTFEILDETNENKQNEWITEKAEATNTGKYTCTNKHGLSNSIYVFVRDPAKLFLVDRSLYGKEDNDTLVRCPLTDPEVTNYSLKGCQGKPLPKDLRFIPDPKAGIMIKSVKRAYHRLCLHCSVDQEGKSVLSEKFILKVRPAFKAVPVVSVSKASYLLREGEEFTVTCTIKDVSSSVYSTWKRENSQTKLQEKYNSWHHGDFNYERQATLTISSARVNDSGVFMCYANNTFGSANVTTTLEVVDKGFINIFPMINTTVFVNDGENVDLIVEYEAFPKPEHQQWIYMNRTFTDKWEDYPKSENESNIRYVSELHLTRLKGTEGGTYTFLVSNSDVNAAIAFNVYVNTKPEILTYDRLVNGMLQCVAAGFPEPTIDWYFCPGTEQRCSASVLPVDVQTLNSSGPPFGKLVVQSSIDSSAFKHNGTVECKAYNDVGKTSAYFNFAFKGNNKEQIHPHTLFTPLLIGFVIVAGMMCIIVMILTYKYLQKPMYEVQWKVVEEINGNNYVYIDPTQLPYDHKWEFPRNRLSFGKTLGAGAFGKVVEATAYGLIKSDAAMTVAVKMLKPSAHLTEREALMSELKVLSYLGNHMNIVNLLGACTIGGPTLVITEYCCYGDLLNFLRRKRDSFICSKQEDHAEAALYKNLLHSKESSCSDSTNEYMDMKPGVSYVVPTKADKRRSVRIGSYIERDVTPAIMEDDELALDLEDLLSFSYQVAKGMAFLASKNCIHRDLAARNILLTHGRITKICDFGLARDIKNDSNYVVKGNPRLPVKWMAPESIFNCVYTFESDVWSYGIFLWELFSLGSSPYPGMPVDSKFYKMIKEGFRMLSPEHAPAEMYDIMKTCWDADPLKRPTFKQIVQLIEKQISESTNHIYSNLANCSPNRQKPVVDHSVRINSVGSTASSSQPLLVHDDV", "settings": "KIT A829P, LanthaScreen Binding"}, "off-target kinases [2]": {"target": "T1, off-target kinases (Homo sapiens, UniProt Q8WTQ7)", "T1 sequence (Q8WTQ7 1-553)": "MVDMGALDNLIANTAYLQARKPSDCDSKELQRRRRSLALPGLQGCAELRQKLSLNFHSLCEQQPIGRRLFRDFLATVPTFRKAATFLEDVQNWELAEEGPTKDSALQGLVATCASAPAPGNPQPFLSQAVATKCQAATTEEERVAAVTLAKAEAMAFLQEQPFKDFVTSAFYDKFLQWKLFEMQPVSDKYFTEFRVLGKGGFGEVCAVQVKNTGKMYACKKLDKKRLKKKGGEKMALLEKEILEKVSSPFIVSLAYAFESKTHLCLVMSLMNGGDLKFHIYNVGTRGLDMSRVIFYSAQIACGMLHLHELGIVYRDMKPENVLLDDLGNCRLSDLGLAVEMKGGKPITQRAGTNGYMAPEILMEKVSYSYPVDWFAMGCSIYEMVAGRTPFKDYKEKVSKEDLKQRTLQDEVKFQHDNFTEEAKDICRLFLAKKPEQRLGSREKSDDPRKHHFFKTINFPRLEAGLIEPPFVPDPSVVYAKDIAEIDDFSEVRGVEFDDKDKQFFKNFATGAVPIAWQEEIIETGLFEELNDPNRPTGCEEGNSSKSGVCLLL", "settings": "GRK7, ZLYTE, ATP Km app"}, "off-target kinases [3]": {"target": "off-target kinases (Homo sapiens, UniProt P50613)", "sequence (P50613 whole entry)": "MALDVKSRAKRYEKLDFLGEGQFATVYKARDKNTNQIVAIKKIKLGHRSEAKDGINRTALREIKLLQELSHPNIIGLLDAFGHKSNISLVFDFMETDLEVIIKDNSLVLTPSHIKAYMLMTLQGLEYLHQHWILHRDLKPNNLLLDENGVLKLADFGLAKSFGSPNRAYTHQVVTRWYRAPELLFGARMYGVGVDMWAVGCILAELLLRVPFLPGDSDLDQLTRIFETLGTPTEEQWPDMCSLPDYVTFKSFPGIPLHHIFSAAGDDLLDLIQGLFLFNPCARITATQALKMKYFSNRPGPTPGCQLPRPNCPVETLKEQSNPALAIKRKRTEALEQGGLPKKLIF", "settings": "CDK7/cyclin H/MNAT1, Adapta, ATP Km app"}, "off-target kinases [4]": {"target": "off-target kinases (Homo sapiens, UniProt Q14289)", "sequence (Q14289 whole entry)": "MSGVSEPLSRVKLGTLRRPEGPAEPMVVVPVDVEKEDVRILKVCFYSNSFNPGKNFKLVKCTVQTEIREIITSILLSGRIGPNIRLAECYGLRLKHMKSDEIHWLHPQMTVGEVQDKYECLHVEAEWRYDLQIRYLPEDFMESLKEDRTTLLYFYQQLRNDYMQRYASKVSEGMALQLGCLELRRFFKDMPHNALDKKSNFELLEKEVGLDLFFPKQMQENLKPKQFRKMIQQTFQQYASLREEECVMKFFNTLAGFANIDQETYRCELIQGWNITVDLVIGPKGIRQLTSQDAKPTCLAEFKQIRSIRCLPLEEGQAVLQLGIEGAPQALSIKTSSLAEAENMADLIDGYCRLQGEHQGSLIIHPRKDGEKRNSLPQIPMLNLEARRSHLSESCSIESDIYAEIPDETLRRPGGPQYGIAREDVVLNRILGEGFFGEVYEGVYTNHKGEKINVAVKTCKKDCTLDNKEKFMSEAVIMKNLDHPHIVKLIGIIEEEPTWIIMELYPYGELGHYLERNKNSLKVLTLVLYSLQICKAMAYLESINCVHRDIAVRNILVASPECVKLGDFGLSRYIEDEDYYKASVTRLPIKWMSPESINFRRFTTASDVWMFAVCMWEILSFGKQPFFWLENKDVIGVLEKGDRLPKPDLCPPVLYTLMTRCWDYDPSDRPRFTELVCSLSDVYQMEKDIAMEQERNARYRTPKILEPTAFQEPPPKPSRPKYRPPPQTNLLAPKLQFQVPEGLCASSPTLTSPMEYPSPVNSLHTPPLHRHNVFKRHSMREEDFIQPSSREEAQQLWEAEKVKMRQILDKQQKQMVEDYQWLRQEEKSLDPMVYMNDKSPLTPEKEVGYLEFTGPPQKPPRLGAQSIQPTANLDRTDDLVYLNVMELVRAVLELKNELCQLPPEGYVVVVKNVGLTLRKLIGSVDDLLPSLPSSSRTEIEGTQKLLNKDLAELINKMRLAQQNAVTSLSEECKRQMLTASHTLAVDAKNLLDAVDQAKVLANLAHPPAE", "settings": "PTK2B (FAK2), ZLYTE, ATP Km app"}, "off-target kinases [5]": {"target": "T2, off-target kinases (Homo sapiens, UniProt Q99759)", "T2 sequence (Q99759 1-626)": "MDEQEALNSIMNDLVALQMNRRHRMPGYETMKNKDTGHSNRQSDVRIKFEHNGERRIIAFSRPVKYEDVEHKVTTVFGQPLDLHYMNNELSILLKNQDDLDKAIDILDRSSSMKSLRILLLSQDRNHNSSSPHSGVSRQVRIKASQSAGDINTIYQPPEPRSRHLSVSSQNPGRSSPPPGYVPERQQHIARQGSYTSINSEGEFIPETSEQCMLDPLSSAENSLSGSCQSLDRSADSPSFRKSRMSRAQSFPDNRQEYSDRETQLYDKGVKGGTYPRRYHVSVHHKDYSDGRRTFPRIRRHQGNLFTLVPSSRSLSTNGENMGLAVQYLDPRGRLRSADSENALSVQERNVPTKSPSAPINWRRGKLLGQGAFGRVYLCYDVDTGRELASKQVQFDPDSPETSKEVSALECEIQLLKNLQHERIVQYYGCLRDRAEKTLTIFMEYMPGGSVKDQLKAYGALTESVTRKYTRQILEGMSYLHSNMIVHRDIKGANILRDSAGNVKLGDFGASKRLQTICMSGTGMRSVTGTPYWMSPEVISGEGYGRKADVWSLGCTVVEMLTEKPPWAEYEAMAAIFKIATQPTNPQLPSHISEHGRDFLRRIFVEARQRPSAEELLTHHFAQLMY", "settings": "MAP3K3 (MEKK3), LanthaScreen Binding"}, "off-target kinases [6]": {"target": "off-target kinases (Homo sapiens, UniProt O00238)", "sequence (O00238 14-502)": "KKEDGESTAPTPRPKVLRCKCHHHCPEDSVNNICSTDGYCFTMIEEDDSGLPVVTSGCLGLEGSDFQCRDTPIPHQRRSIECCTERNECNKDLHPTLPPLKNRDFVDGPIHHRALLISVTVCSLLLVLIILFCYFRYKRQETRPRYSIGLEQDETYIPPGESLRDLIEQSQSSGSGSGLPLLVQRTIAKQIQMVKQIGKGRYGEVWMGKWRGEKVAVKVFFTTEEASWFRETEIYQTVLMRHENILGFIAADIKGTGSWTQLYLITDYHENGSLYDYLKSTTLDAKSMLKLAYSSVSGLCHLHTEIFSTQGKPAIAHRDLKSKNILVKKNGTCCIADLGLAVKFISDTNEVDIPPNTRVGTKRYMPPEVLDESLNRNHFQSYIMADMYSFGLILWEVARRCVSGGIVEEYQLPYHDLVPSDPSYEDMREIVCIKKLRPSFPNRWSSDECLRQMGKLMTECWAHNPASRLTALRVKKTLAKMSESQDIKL", "settings": "BMPR1B (ALK6), LanthaScreen Binding"}, "off-target kinases [7]": {"target": "off-target kinases (Homo sapiens, UniProt Q05397)", "sequence (Q05397 whole entry)": "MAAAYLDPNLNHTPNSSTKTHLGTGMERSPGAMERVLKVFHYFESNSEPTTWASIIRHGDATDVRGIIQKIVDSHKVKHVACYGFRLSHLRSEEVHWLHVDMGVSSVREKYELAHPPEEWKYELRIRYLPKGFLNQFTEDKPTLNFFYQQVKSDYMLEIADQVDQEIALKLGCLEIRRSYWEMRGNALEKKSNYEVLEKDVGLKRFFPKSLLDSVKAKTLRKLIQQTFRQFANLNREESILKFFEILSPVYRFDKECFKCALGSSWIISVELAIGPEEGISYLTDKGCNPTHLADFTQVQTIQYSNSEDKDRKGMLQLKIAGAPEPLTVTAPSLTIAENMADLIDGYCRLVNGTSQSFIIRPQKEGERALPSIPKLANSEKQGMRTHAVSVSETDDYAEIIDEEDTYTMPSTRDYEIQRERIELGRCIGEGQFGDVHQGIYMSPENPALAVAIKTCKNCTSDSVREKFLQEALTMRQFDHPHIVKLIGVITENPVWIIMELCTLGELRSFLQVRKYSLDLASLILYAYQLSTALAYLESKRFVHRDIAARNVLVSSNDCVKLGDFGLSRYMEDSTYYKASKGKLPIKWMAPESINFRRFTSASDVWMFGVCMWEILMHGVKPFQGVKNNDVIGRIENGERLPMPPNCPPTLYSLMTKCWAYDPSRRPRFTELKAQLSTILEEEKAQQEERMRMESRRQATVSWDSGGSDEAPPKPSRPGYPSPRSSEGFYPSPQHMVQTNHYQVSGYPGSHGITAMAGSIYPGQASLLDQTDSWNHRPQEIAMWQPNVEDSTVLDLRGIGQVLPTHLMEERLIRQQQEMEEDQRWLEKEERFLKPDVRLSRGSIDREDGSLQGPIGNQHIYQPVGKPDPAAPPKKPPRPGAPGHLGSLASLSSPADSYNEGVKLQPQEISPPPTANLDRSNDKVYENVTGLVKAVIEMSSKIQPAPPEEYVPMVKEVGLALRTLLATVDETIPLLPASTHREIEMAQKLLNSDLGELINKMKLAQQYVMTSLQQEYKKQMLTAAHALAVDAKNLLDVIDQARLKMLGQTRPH", "settings": "PTK2 (FAK), ZLYTE, ATP Km app"}}, "note": "Read-outs that look alike come from different tables or passages of the source.", "data": [{"smiles": "N#Cc1cc(-c2ncnc(Nc3ccc(N4CCN(C5COC5)CC4)cc3)n2)ccc1OC1CCOCC1", "note": "[Compound 1, 5-(4-((4-(4-(oxetan-3-yl)piperazin-1-yl)phenyl)amino)-1,3,5-triazin-2-yl)-2-((tetrahydro-2H-pyran-4-yl)oxy)benzonitrile]", "values": [{"measurement": "inhibition", "setting": "off-target kinases [1]; read-out: % Inhibition 1", "value": 91, "unit": "%"}, {"measurement": "inhibition", "setting": "off-target kinases [1]; read-out: % Inhibition 2", "value": 90, "unit": "%"}, {"measurement": "inhibition", "setting": "off-target kinases [1]; read-out: % Inhibition Avg", "value": 90, "unit": "%"}, {"measurement": "inhibition", "setting": "off-target kinases [2]; read-out: % Inhibition 1", "value": 3, "unit": "%"}, {"measurement": "inhibition", "setting": "off-target kinases [2]; read-out: % Inhibition 2", "value": 5, "unit": "%"}, {"measurement": "inhibition", "setting": "off-target kinases [2]; read-out: % Inhibition Avg", "value": 4, "unit": "%"}, {"measurement": "inhibition", "setting": "off-target kinases [3]; read-out: % Inhibition 1", "value": 17, "unit": "%"}, {"measurement": "inhibition", "setting": "off-target kinases [3]; read-out: % Inhibition 2", "value": 14, "unit": "%"}, {"measurement": "inhibition", "setting": "off-target kinases [3]; read-out: % Inhibition Avg", "value": 15, "unit": "%"}, {"measurement": "inhibition", "setting": "off-target kinases [4]; read-out: % Inhibition 1", "value": 8, "unit": "%"}, {"measurement": "inhibition", "setting": "off-target kinases [4]; read-out: % Inhibition 2", "value": 4, "unit": "%"}, {"measurement": "inhibition", "setting": "off-target kinases [4]; read-out: % Inhibition Avg", "value": 6, "unit": "%"}, {"measurement": "inhibition", "setting": "off-target kinases [5]; read-out: % Inhibition 1", "value": 10, "unit": "%"}, {"measurement": "inhibition", "setting": "off-target kinases [5]; read-out: % Inhibition 2", "value": 13, "unit": "%"}, {"measurement": "inhibition", "setting": "off-target kinases [5]; read-out: % Inhibition Avg", "value": 12, "unit": "%"}, {"measurement": "inhibition", "setting": "off-target kinases [6]; read-out: % Inhibition 1", "value": 56, "unit": "%"}, {"measurement": "inhibition", "setting": "off-target kinases [6]; read-out: % Inhibition 2", "value": 60, "unit": "%"}, {"measurement": "inhibition", "setting": "off-target kinases [6]; read-out: % Inhibition Avg", "value": 58, "unit": "%"}, {"measurement": "inhibition", "setting": "off-target kinases [7]; read-out: % Inhibition 1", "value": 0, "unit": "%"}, {"measurement": "inhibition", "setting": "off-target kinases [7]; read-out: % Inhibition 2", "value": 2, "unit": "%"}, {"measurement": "inhibition", "setting": "off-target kinases [7]; read-out: % Inhibition Avg", "value": 1, "unit": "%"}]}]}
